Experimental data: patent publication US20100227859A1, “TRICYCLIC COMPOUNDS AS MATRIX METALLOPROTEINASE INHIBITORS” (priority 2007, published 2010)

These molecules were tested against purified human MMP-12 enzyme (Homo sapiens, UniProt P39900) (assay: MMP-12 FRET assay). Details: substrate 20 μM, room temperature.
purified human MMP-12 enzyme, sequence (P39900 106-470): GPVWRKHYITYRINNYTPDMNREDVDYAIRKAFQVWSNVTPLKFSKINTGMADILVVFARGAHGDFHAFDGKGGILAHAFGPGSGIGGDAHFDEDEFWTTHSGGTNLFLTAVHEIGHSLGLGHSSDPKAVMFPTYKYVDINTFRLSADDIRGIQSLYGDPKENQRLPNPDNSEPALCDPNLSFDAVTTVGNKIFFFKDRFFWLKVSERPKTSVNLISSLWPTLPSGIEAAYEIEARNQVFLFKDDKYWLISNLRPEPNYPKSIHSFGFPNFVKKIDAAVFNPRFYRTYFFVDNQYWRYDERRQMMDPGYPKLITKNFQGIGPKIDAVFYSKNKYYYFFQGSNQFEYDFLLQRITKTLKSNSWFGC
Format: biochemical
Outline: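 Enzyme pre-incubated 30 min at room temperature with compound in 50 mM HEPES pH 7.4, 100 mM NaCl, 5 mM CaCl2, 0.005% Brij-35, 10% DMSO final. Reaction started with 20 μM MCA-Pro-Leu-Gly-Leu-Dpa(DNP)-Ala-Arg, and initial cleavage rate read over 30 min (λex 325, λem 395 nm). IC50 from slope-factor inhibition fit.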
Molecule CC(C)[C@@H](NS(=O)(=O)c1ccc2oc3cc(-c4noc(C5CCC5)n4)ccc3c2c1)C(=O)O [Compound 148, (R)-2-(7-(5-cyclobutyl-1,2,4-oxadiazol-3-yl)dibenzo[b,d]furan-2-sulfonamido)-3-methylbutanoic acid] has an IC50 of less than 1.5 nM.
CC(C)Cc1nc(-c2ccc3c(c2)oc2ccc(S(=O)(=O)N[C@@H](C(=O)O)C(C)C)cc23)no1 [Compound 149, (R)-2-(7-(5-isobutyl-1,2,4-oxadiazol-3-yl)dibenzo[b,d]furan-2-sulfonamido)-3-methylbutanoic acid] gave an IC50 of 5.3 nM.
CC(C)[C@@H](NS(=O)(=O)c1ccc2oc3cc(-c4noc(-c5ccccc5)n4)ccc3c2c1)C(=O)O [Compound 150, (R)-3-methyl-2-(7-(5-phenyl-1,2,4-oxadiazol-3-yl)dibenzo[b,d]furan-2-sulfonamido)butanoic acid] gave an IC50 of 5 nM.
Work on CC(C)[C@H](NS(=O)(=O)c1ccc2c(c1)oc1ccc(-c3nc4ccccc4s3)cc12)C(=O)O [Compound 151, (S)-2-(8-(benzo[d]thiazol-2-yl)dibenzo[b,d]furan-3-sulfonamido)-3-methylbutanoic acid] yielded an IC50 of less than 1.5 nM.
CC(C)[C@H](NS(=O)(=O)c1ccc2c(c1)oc1ccc(-c3cncnc3)cc12)C(=O)O [Compound 152, (S)-3-methyl-2-(8-(pyrimidin-5-yl)dibenzo[b,d]furan-3-sulfonamido)butanoic acid] gave an IC50 of less than 1.5 nM.
COc1ncc(-c2ccc3oc4cc(S(=O)(=O)N[C@H](C(=O)O)C(C)C)ccc4c3c2)cn1 [Compound 153, (S)-2-(8-(2-methoxypyrimidin-5-yl)dibenzo[b,d]furan-3-sulfonamido)-3-methylbutanoic acid] was tested, and the IC50 was less than 1.5 nM.
CC(C)c1nc(-c2ccc3c(c2)oc2cc(S(=O)(=O)N[C@H](C(=O)O)C(C)C)ccc23)no1 [Compound 154, (S)-2-(7-(5-isopropyl-1,2,4-oxadiazol-3-yl)dibenzo[b,d]furan-3-sulfonamido)-3-methylbutanoic acid] gave an IC50 of 32 nM.
CC(C)[C@H](NS(=O)(=O)c1ccc2c(c1)oc1cc(-c3noc(C(C)(C)C)n3)ccc12)C(=O)O [Compound 155, (S)-2-(7-(5-tert-butyl-1,2,4-oxadiazol-3-yl)dibenzo[b,d]furan-3-sulfonamido)-3-methylbutanoic acid] was tested, and the IC50 was 11 nM.
Cc1nc(-c2ccc3c(c2)oc2cc(S(=O)(=O)N[C@H](C(=O)O)C(C)C)ccc23)no1 [Compound 156, (S)-3-methyl-2-(7-(5-methyl-1,2,4-oxadiazol-3-yl)dibenzo[b,d]furan-3-sulfonamido)butanoic acid] showed an IC50 of 6.9 nM.
Work on CCC(C)Cn1cc(-c2ccc3oc4cc(S(=O)(=O)N[C@H](C(=O)O)C(C)C)ccc4c3c2)cn1 (stereo partly drawn) [Compound 157, (2S)-3-methyl-2-(8-(1-(2-methylbutyl)-1H-pyrazol-4-yl)dibenzo[b,d]furan-3-sulfonamido)butanoic acid] yielded an IC50 of 15 nM.
CC(C)[C@H](NS(=O)(=O)c1ccc2c(c1)oc1ccc(-c3cnn(CCN4CCOCC4)c3)cc12)C(=O)O [Compound 158, (S)-3-methyl-2-(8-(1-(2-morpholinoethyl)-1H-pyrazol-4-yl)dibenzo[b,d]furan-3-sulfonamido)butanoic acid] gave an IC50 of 223 nM.
CC(C)Cn1cc(-c2ccc3oc4cc(S(=O)(=O)N[C@H](C(=O)O)C(C)C)ccc4c3c2)cn1 [Compound 159, (S)-2-(8-(1-isobutyl-1H-pyrazol-4-yl)dibenzo[b,d]furan-3-sulfonamido)-3-methylbutanoic acid] was tested, and the IC50 was 6.2 nM.
Cc1nn(C)c(C)c1-c1ccc2oc3cc(S(=O)(=O)N[C@H](C(=O)O)C(C)C)ccc3c2c1 [Compound 160, (S)-3-methyl-2-(8-(1,3,5-trimethyl-1H-pyrazol-4-yl)dibenzo[b,d]furan-3-sulfonamido)butanoic acid] showed an IC50 of 22 nM.
In the case of Cc1onc(-c2ccccc2)c1-c1ccc2oc3cc(S(=O)(=O)N[C@H](C(=O)O)C(C)C)ccc3c2c1 [Compound 161, (S)-3-methyl-2-(8-(5-methyl-3-phenylisoxazol-4-yl)dibenzo[b,d]furan-3-sulfonamido)butanoic acid], the IC50 is reported as 82 nM.
In the case of Cc1c(-c2ccc3oc4cc(S(=O)(=O)N[C@H](C(=O)O)C(C)C)ccc4c3c2)cnn1-c1ccccc1 [Compound 162, (S)-3-methyl-2-(8-(5-methyl-1-phenyl-1H-pyrazol-4-yl)dibenzo[b,d]furan-3-sulfonamido)butanoic acid], the IC50 is reported as less than 1.5 nM.
With Cc1nc(-c2ccccc2)sc1-c1ccc2oc3cc(S(=O)(=O)N[C@H](C(=O)O)C(C)C)ccc3c2c1 [Compound 163, (S)-3-methyl-2-(8-(4-methyl-2-phenylthiazol-5-yl)dibenzo[b,d]furan-3-sulfonamido)butanoic acid] the IC50 was 170 nM.
In the case of Cc1nc(-c2ccc(C(F)(F)F)cc2)sc1-c1ccc2oc3cc(S(=O)(=O)N[C@H](C(=O)O)C(C)C)ccc3c2c1 [Compound 164, (S)-3-methyl-2-(8-(4-methyl-2-(4-(trifluoromethyl)phenyl)thiazol-5-yl)dibenzo[b,d]furan-3-sulfonamido)butanoic acid], the IC50 is reported as 12.3 nM.
CCc1sc(-c2ccc3c(c2)oc2cc(S(=O)(=O)N[C@H](C(=O)O)C(C)C)ccc23)cc1Br [Compound 165, (S)-2-(7-(4-bromo-5-ethylthiophen-2-yl)dibenzo[b,d]furan-3-sulfonamido)-3-methylbutanoic acid] gave an IC50 of 1.5 nM.
With CCc1ccc(-c2cc(-c3ccc4c(c3)oc3cc(S(=O)(=O)N[C@H](C(=O)O)C(C)C)ccc34)sc2CC)s1 [Compound 166, (S)-2-(7-(2′,5-diethyl-2,3′-bithiophen-5′-yl)dibenzo[b,d]furan-3-sulfonamido)-3-methylbutanoic acid] the IC50 was 93 nM.
With CC(C)[C@@H](NS(=O)(=O)c1ccc2oc3cc(-c4cncnc4)ccc3c2c1)C(=O)O [Compound 167, (R)-3-methyl-2-(7-(pyrimidin-5-yl)dibenzo[b,d]furan-2-sulfonamido)butanoic acid] the IC50 was less than 1.5 nM.
With COc1ncc(-c2ccc3c(c2)oc2ccc(S(=O)(=O)N[C@@H](C(=O)O)C(C)C)cc23)cn1 [Compound 168, (R)-2-(7-(2-methoxypyrimidin-5-yl)dibenzo[b,d]furan-2-sulfonamido)-3-methylbutanoic acid] the IC50 was 1.5 nM.
Cc1nc(C)c(-c2ccc3c(c2)oc2ccc(S(=O)(=O)N[C@@H](C(=O)O)C(C)C)cc23)s1 [Compound 169, (R)-2-(7-(2,4-dimethylthiazol-5-yl)dibenzo[b,d]furan-2-sulfonamido)-3-methylbutanoic acid] gave an IC50 of 11 nM.
Molecule CCC(C)Cn1cc(-c2ccc3c(c2)oc2ccc(S(=O)(=O)N[C@@H](C(=O)O)C(C)C)cc23)cn1 (stereo partly drawn) [Compound 170, (2R)-3-methyl-2-(7-(1-(2-methylbutyl)-1H-pyrazol-4-yl)dibenzo[b,d]furan-2-sulfonamido)butanoic acid] has an IC50 of 5.2 nM.
Work on CCCn1cc(-c2ccc3c(c2)oc2ccc(S(=O)(=O)N[C@@H](C(=O)O)C(C)C)cc23)cn1 [Compound 171, (R)-3-methyl-2-(7-(1-propyl-1H-pyrazol-4-yl)dibenzo[b,d]furan-2-sulfonamido)butanoic acid] yielded an IC50 of 3.9 nM.
CC(C)[C@@H](NS(=O)(=O)c1ccc2oc3cc(-c4cnn(CCN5CCOCC5)c4)ccc3c2c1)C(=O)O [Compound 172, (R)-3-methyl-2-(7-(1-(2-morpholinoethyl)-1H-pyrazol-4-yl)dibenzo[b,d]furan-2-sulfonamido)butanoic acid] was tested, and the IC50 was 19 nM.
